Data: ChEMBL document CHEMBL1697692, “Developing structure-activity relationships for the prediction of hepatotoxicity” (Chem Res Toxicol, 2010)

Test system: Hepatotoxicity
Experiment: Literature-mined public compounds from Greene et al multi-species hepatotoxicity modelling dataset

Compound | Hepatotoxicity
CC(C)(C)NCC(O)COc1cccc2c1CC(O)C(O)C2 (stereo not drawn) [NADOLOL] | NE: No evidence of hepatotoxicity in any species
CN(C)CCCN1c2ccccc2CCc2ccccc21.Cl [IMIPRAMINE HYDROCHLORIDE] | HH: Evidence of human hepatotoxicity
Cc1cc(C(=O)NNCc2ccccc2)no1 [ISOCARBOXAZID] | WE: Weak evidence (<10 case reports) of human hepatotoxicity
CC(C)Cc1ccc(C(C)C(=O)O)cc1 (stereo not drawn) [IBUPROFEN] | WE: Weak evidence (<10 case reports) of human hepatotoxicity
Cc1oncc1C(=O)Nc1ccc(C(F)(F)F)cc1 [LEFLUNOMIDE] | HH: Evidence of human hepatotoxicity
CC1=C(C(=O)O)N2C(=O)[C@@H](NC(=O)[C@H](N)c3ccc(O)cc3)[C@H]2SC1 [CEFADROXIL] | HH: Evidence of human hepatotoxicity
CC(C)c1cccc(C(C)C)c1O [PROPOFOL] | NE: No evidence of hepatotoxicity in any species
Clc1ccccc1CN1CCc2sccc2C1 [TICLOPIDINE] | HH: Evidence of human hepatotoxicity
[H]/N=C(/N)N[C@H]1[C@H](O)[C@@H](O)[C@H](O[C@@H]2O[C@@H](C)[C@](O)(C=O)[C@H]2O[C@@H]2O[C@@H](CO)[C@H](O)[C@@H](O)[C@@H]2NC)[C@@H](N/C(N)=N\[H])[C@@H]1O [STREPTOMYCIN] | NE: No evidence of hepatotoxicity in any species
O=c1[nH]cnc2c1ncn2[C@H]1CC[C@@H](CO)O1 [DIDANOSINE] | HH: Evidence of human hepatotoxicity
CN1CCC(=C2c3ccccc3CC(=O)c3sccc32)CC1 [KETOTIFEN] | NE: No evidence of hepatotoxicity in any species
CC1=C(/C=C/C(C)=C/C=C/C(C)=C/C(=O)O)C(C)(C)CCC1 [TRETINOIN] | HH: Evidence of human hepatotoxicity
O=C(O)P(=O)(O)O [FOSCARNET] | NE: No evidence of hepatotoxicity in any species
Cc1ncc(CO)c(CO)c1O [PYRIDOXINE] | NE: No evidence of hepatotoxicity in any species
CCCSc1ccc2nc(NC(=O)OC)[nH]c2c1 [ALBENDAZOLE] | HH: Evidence of human hepatotoxicity
NC(CO)(CO)CO.O=C(c1ccccc1)c1ccc2n1CCC2C(=O)O (stereo not drawn) [KETOROLAC TROMETHAMINE] | HH: Evidence of human hepatotoxicity
CCC1(c2ccccc2)C(=O)NC(=O)N(C)C1=O (stereo not drawn) [MEPHOBARBITAL] | HH: Evidence of human hepatotoxicity
CN(C)C(=O)Oc1ccc[n+](C)c1.[Br-] [PYRIDOSTIGMINE BROMIDE] | NE: No evidence of hepatotoxicity in any species
BISMUTH SUBSALICYLATE | NE: No evidence of hepatotoxicity in any species
Oc1c(Cl)cc(Cl)cc1Sc1cc(Cl)cc(Cl)c1O [BITHIONOL] | HH: Evidence of human hepatotoxicity
CN(C)CCC(c1ccc(Br)cc1)c1ccccn1.O=C(O)/C=C\C(=O)O (stereo not drawn) [BROMPHENIRAMINE MALEATE] | NE: No evidence of hepatotoxicity in any species

Compound | Hepatotoxicity
COc1cc2c(c3oc(=O)c4c(c13)CCC4=O)[C@@H]1C=CO[C@@H]1O2 [AFLATOXIN] | HH: Evidence of human hepatotoxicity
COCC(=O)O[C@]1(CCN(C)CCCc2nc3ccccc3[nH]2)CCc2cc(F)ccc2[C@@H]1C(C)C [MIBEFRADIL] | NE: No evidence of hepatotoxicity in any species
CN(CCCCCCCCCCN(C)C(=O)Oc1cccc([N+](C)(C)C)c1)C(=O)Oc1cccc([N+](C)(C)C)c1.[Br-].[Br-] [DEMECARIUM BROMIDE] | HH: Evidence of human hepatotoxicity
O=C(O)CCCC[C@@H]1SC[C@@H]2NC(=O)N[C@@H]21 [BIOTIN] | NE: No evidence of hepatotoxicity in any species
CN(C)CCCN1c2ccccc2Sc2ccc(Cl)cc21 [CHLORPROMAZINE] | HH: Evidence of human hepatotoxicity
MERCURIC CHLORIDE | AH: Evidence for animal hepatotoxicity but not tested in humans
CN(C)CCC=C1c2ccccc2CCc2ccccc21.Cl [AMITRIPTYLINE HYDROCHLORIDE] | WE: Weak evidence (<10 case reports) of human hepatotoxicity
CN(C)c1ccc(O)c2c1C[C@H]1C[C@H]3[C@H](N(C)C)C(O)=C(C(N)=O)C(=O)[C@@]3(O)C(O)=C1C2=O.Cl [MINOCYCLINE HYDROCHLORIDE] | HH: Evidence of human hepatotoxicity
CCN(CC)C(=O)N1CCN(C)CC1 [DIETHYLCARBAMAZINE] | HH: Evidence of human hepatotoxicity
CN(CCOc1ccc(CC2SC(=O)NC2=O)cc1)c1ccccn1 (stereo not drawn) [ROSIGLITAZONE] | WE: Weak evidence (<10 case reports) of human hepatotoxicity
COc1ccc(C[C@H](N)C(=O)N[C@H]2[C@@H](O)[C@H](n3cnc4c(N(C)C)ncnc43)O[C@@H]2CO)cc1 [PUROMYCIN] | AH: Evidence for animal hepatotoxicity but not tested in humans
CCN(CC)Cc1cc(Nc2ccnc3cc(Cl)ccc23)ccc1O.Cl.Cl.Cl | HH: Evidence of human hepatotoxicity
CCCCC1=NC2(CCCC2)C(=O)N1Cc1ccc(-c2ccccc2-c2nnn[nH]2)cc1 [IRBESARTAN] | WE: Weak evidence (<10 case reports) of human hepatotoxicity
C[C@@](Cc1ccc(O)c(O)c1)(NN)C(=O)O.O [CARBIDOPA] | NE: No evidence of hepatotoxicity in any species
CADMIUM DICHLORIDE | AH: Evidence for animal hepatotoxicity but not tested in humans
Cc1ccc(Cl)c(Nc2ccccc2C(=O)[O-])c1Cl.O.[Na+] [MECLOFENAMATE SODIUM] | HH: Evidence of human hepatotoxicity
CC(C)C(=O)Nc1ccc([N+](=O)[O-])c(C(F)(F)F)c1 [FLUTAMIDE] | HH: Evidence of human hepatotoxicity
CO[C@@]1(NC(=O)C(C(=O)[O-])c2ccc(O)cc2)C(=O)N2C(C(=O)[O-])=C(CSc3nnnn3C)CO[C@@H]21.[Na+].[Na+] (stereo partly drawn) [MOXALACTAM DISODIUM] | NE: No evidence of hepatotoxicity in any species
Nc1ncnc2c1ncn2[C@@H]1O[C@H](CO)[C@@H](O)[C@@H]1O [VIDARABINE] | NE: No evidence of hepatotoxicity in any species
NC(CO)(CO)CO [TROMETHAMINE] | NE: No evidence of hepatotoxicity in any species
COc1cccc2c1C(=O)c1c(O)c3c(c(O)c1C2=O)C[C@@](O)(C(=O)CO)C[C@@H]3O[C@H]1C[C@H](N)[C@H](O)[C@H](C)O1 [DOXORUBICIN] | NE: No evidence of hepatotoxicity in any species

Compound | Hepatotoxicity
CC(C)NCC(O)c1cc(O)cc(O)c1.CC(C)NCC(O)c1cc(O)cc(O)c1.O=S(=O)(O)O (stereo not drawn) [METAPROTERENOL SULFATE] | HH: Evidence of human hepatotoxicity
Cc1cc(NC(=O)C2=C(O)c3ccccc3S(=O)(=O)N2C)no1 [ISOXICAM] | NE: No evidence of hepatotoxicity in any species
O=C(Cc1cccs1)N[C@@H]1C(=O)N2C(C(=O)[O-])=C(C[n+]3ccccc3)CS[C@H]12 [CEPHALORIDINE] | AH: Evidence for animal hepatotoxicity but not tested in humans
CN[C@H](CC(C)C)C(=O)N[C@H]1C(=O)N[C@@H](CC(N)=O)C(=O)N[C@H]2C(=O)N[C@H]3C(=O)N[C@H](C(=O)N[C@H](C(=O)O)c4cc(O)cc(O)c4-c4cc3ccc4O)[C@H](O)c3ccc(c(Cl)c3)Oc3cc2cc(c3O[C@@H]2O[C@H](CO)[C@@H](O)[C@H](O)[C@H]2O[C@H]2C[C@](C)(N)[C@H](O)[C@H](C)O2)Oc2ccc(cc2Cl)[C@H]1O [VANCOMYCIN] | HH: Evidence of human hepatotoxicity
CC(C(=O)[O-])c1cccc(Oc2ccccc2)c1.[Na+] (stereo not drawn) [FENOPROFEN SODIUM] | HH: Evidence of human hepatotoxicity
Cl[C@H]1[C@H](Cl)[C@@H](Cl)[C@@H](Cl)[C@H](Cl)[C@H]1Cl (stereo in doubt; form 2) [LINDANE] | HH: Evidence of human hepatotoxicity
Cl.N=C(N)NC(=O)c1nc(Cl)c(N)nc1N.O.O [AMILORIDE HYDROCHLORIDE] | NE: No evidence of hepatotoxicity in any species
C[C@H](CCC(=O)O)[C@H]1CC[C@H]2[C@@H]3[C@@H](O)C[C@@H]4C[C@H](O)CC[C@]4(C)[C@H]3CC[C@]12C (stereo in doubt; form 1) [URSODIOL] | HH: Evidence of human hepatotoxicity
O=C(O)c1ccccc1Nc1cccc(C(F)(F)F)c1 [FLUFENAMIC ACID] | WE: Weak evidence (<10 case reports) of human hepatotoxicity
CCCc1nc2c(C)cc(-c3nc4ccccc4n3C)cc2n1Cc1ccc(-c2ccccc2C(=O)O)cc1 | WE: Weak evidence (<10 case reports) of human hepatotoxicity
FERROUS SULFATE | NE: No evidence of hepatotoxicity in any species
Cc1ccccc1N1C(=O)c2cc(S(N)(=O)=O)c(Cl)cc2NC1C (stereo not drawn) [METOLAZONE] | HH: Evidence of human hepatotoxicity
C=C[C@H]1C[N@@]2CC[C@H]1C[C@@H]2[C@@H](O)c1ccnc2ccc(OC)cc12 [QUINIDINE] | HH: Evidence of human hepatotoxicity
C=C1CC[C@H](O)C/C1=C/C=C1\CCC[C@]2(C)[C@@H]([C@H](C)CCCC(C)(C)O)CC[C@@H]12.O [CALCIFEDIOL] | HH: Evidence of human hepatotoxicity
CC(NC(C)(C)C)C(=O)c1cccc(Cl)c1.Cl (stereo not drawn) [BUPROPION HYDROCHLORIDE] | WE: Weak evidence (<10 case reports) of human hepatotoxicity
CC(C)(Oc1ccc(CCNC(=O)c2ccc(Cl)cc2)cc1)C(=O)O [BEZAFIBRATE] | NE: No evidence of hepatotoxicity in any species
Oc1c(Cl)cc(Cl)c(Cl)c1Cc1c(O)c(Cl)cc(Cl)c1Cl [HEXACHLOROPHENE] | HH: Evidence of human hepatotoxicity
N[C@H]1C(O)O[C@H](CO)[C@@H](O)[C@@H]1O (stereo partly drawn) [GLUCOSAMINE] | AH: Evidence for animal hepatotoxicity but not tested in humans
CC(N)C(O)c1ccccc1.Cl (stereo not drawn) [PHENYLPROPANOLAMINE HYDROCHLORIDE] | NE: No evidence of hepatotoxicity in any species
Nc1ccc(C(=O)[O-])cc1.[K+] [AMINOBENZOATE POTASSIUM] | NE: No evidence of hepatotoxicity in any species
Cc1cccc(Nc2cc(Cl)nc(SCC(=O)O)n2)c1C [PIRINIXIC ACID] | AH: Evidence for animal hepatotoxicity but not tested in humans
